Paper PMC10859961, “Ir(III) Half-Sandwich Photosensitizers with a π-Expansive Ligand for Efficient Anticancer Photodynamic Therapy” (Journal of Medicinal Chemistry, 2024)
Where two headings read alike, the source gives them in different places.

Columns and labels:
[1] = system: A549 cells; assay: Mitochondrial membrane potential (JC-1, flow cytometry); assay type: cell-based, human; settings: positive control, 5 μM, 30 min
Description: A549 cells were seeded onto 24-well plates. 24 h later, cells were incubated for 4 h with complexes 2, 4, 6, and 8 at 10 nM and then photoactivated or kept in the dark for an additional hour. Next, the cells were washed with PBS and harvested by trypsinization. Mitochondrial membrane potential changes were immediately measured by the JC-1 (5,5′,6,6′-tetrachloro-1,1′,3,3′-tetraethylbenzimidazolocarbo-cyanine iodide) Mitochondrial Membrane Potential Detection Kit (Biotium), according to the manufacturer’s instructions. As positive control, the cells were coincubated with CCCP (Sigma) at 5 μM for 30 min to disrupt the mitochondrial membrane potential. For each treatment, the fluorescence of 1 × 10^4 cells was analyzed by a Novocyte flow cytometer. JC-1 red aggregates were detected at a wavelength of 590 nm (FL2) and JC-1 green monomers at 529 nm (FL1).

[2] = system: A549 cancer cells; assay: MTT cell viability assay, dark or photoactivated; assay type: cell-based, human; settings: A549, MTT; for IC50: 4 h incubation
Description: Cells were cultured in 96-well plates at a density of 3000 (A549), 2500 (HeLa), or 5000 (PC-3, 1BR.3.G, and MRC-5) cells per well in cell culture medium and allowed to attach for 24 h. Solutions of the complexes at different concentrations were prepared for cell treatments. In all cases, the solid compounds were weighed using an analytical balance (Mettler Toledo AX205DR) to ensure precise measurements. Subsequently, 5 mM solutions were prepared using DMSO. Solutions were then diluted in water to reach a concentration of 1 mM and then, aliquots were taken and diluted in culture medium to obtain solutions ranging from 0 to 50 μM. […] The cells were treated with these solutions in dark conditions or following the photoactivation protocol (see below). 48 h later the treatments were removed, and cells were washed with phosphate-buffered saline (PBS).
Initially, the effect of the complexes on the cell viability was determined by the 3-(4,5-dimethylthiazol-2-yl)-2,5-diphenyltetrazolium bromide (MTT) assay.[147] The cells were incubated for 2 h with 100 μL of culture medium together with 10 μL of MTT (Sigma-Aldrich) at 0.5 mg/mL. After discarding the medium, DMSO was added to each well to dissolve the purple formazan crystals. The absorbance of each well was determined on a Multiscan Plate Reader (Synergy 4, Biotek, Winooski) at a wavelength of 570 nm. Cell viability was also assessed using the CyQUANT Direct Cell Proliferation Assay (Thermo Fisher Scientific), following the manufacturer’s instructions. Briefly, after the treatments, the cells were washed with PBS, and an equal volume of culture medium and CyQUANT mix was added to each well. The plates were then incubated for 1 h at 37 °C. Subsequently, the fluorescence intensity was bottom read using a Multiscan Plate Reader (Synergy 4, Biotek, Winooski) with excitation and emission filters of 485 and 528 nm, respectively. In both assays, at least three replicates were measured for each treatment. The concentration that reduces the cell viability by 50% (IC50) was established using the Gen5 software (BioTek). Three independent experiments were carried out for each compound. […] The phototoxicity index (PI = IC50,dark/IC50,light) was determined.
To assess the photodynamic activity of the complexes, cells were incubated with the complexes for 4 h to enable their intracellular accumulation. The cells were then irradiated with light with a wavelength of 460 nm (blue), 530 nm (green), or 655 nm (red) for 1 h using a LED system (LuxLight) with an effective power of 6.7 mW cm^–2, which provides a total light dose of 24.1 J cm^–2. The LED system was positioned at 25 mm from the cell culture plates.

[3] = system: porcine red blood cells (RBC); assay: Hemolytic activity (hemoglobin release); assay type: cell-based; settings: dark, 1 hour
Description: The hemolytic activities of the complexes were determined by measuring hemoglobin release from porcine red blood cells (RBC). First, fresh porcine blood commercially obtained was diluted to 5% v/v in PBS solution and washed three times with PBS by centrifugation at 1000 rcf for 10 min. Then, RBC suspension (150 μL) was mixed with 150 μL of each complex at concentrations ranging from 1 to 50 μM. A solution of 0.2% Triton X-100 in PBS was used as positive control to induce complete hemolysis. PBS alone was used as negative control. Samples were incubated at 37 °C for 1 h in an orbital shaker (50 rpm) and then centrifuged at 3500 rcf for 10 min. 80 μL aliquots of the supernatant were transferred to a 96-well plate and diluted with 80 μL of Milli-Q water. Hemolysis was evaluated by measuring the absorbance of the samples at 540 nm with a Synergy 4 plate reader (BioTek, Winooski). The percentage of hemolysis (H) was calculated using eq 4: [drawing 25] 4 where As is the absorbance for a given sample, An is the absorbance for the negative control, and Ap is the absorbance for the positive control. Each sample was tested in triplicate.

[4] = system: A549 cells; assay: Cell death mechanism (Annexin V-FITC / propidium iodide); assay type: cell-based, human; settings: positive control 50 μM for 24 h
Description: The cell death mechanism was analyzed with the Vybrant Apoptosis Assay Kit (Molecular Probes). A549 cells seeded in 12-well plates at a density of 1 × 10^5 cells per well were treated with complex 6 at the corresponding IC50,light × 5 under photoactivation conditions. Cisplatin at 50 μM was used as positive control. 4 and 20 h after the irradiation, cells were collected by trypsinization and immediately stained with Annexin V-FITC and propidium iodide according to the manufacturer’s instructions. The median fluorescence of 10,000 cells of each sample was analyzed by flow cytometry. Annexin-FITC staining was detected at a wavelength of 520 nm (FL1) and propidium iodide was detected at 617 nm (FL2).

[5] = system: CT26; design: method as in p (Pozza et al., Inorg. Chem. 2023); settings: 540 nm, dose 9 J cm‐2, ref p (Pozza et al., Inorg. Chem. 2023); cited from earlier work
[6] = Photocatalytic NADH oxidation (UV-vis); assay type: biochemical; design: key: TON = ΔNADH concentration after 1 h / photocatalyst concentration; settings: first hour, complex 2.5 μM, NADH 100 μM
Description: Fresh stock solutions of the complexes at 7.50 μM in H2O/MeOH mixture (97.5/2.5, v/v) and NADH at 300 μM in H2O/MeOH mixture (97.5/2.5, v/v) were prepared. In a quartz cell, 1 mL of complex solution, 1 mL of NADH solution, and 1 mL of solvent mixture were mixed to prepare a final solution with 2.50 μM complex and 100 μM NADH (complex/NADH rate = 1/40). The solutions were studied by recording UV–vis absorption spectra in dark conditions and under blue light irradiation (λexc = 470 nm, “Medusa” photoreactor) at ambient temperature and various time intervals for 8 h. In addition, a solution of NADH at 100 μM was studied under blue light irradiation to confirm its photostability. The photocatalytic rate of the photosensitizers was evaluated by monitoring its absorbance decrease at 340 nm, which correspond to NADH oxidation.
The turnover numbers (TONs) of complexes were calculated by measuring the absorption difference at 340 nm after 1 h of reaction. TON was calculated from the difference in NADH concentration after 1 h divided by the concentration of photocatalyst (eq 5), where b is the optical path length (1 cm). The concentration of NADH was obtained using the extinction coefficient ε340 = 5751 M^–1 cm^–1.[40],[148] [drawing 26] 5

[7] = system: calf thymus DNA (CT-DNA); assay: Competitive EtBr displacement assay; assay type: binding; settings: CT-DNA saturated with EtBr; 1 h, room temperature; read-out: C50 (50% reduction of EtBr fluorescence)
Description: To investigate the capacity of the complexes to intercalate into DNA, the competitive ethidium displacement assay was carried out as previously described[149] with minor modifications. Stock solutions of 20 μM calf thymus DNA (CT-DNA) and 25 μM Ethidium bromide (EtBr) were prepared in saline TE (50 mM NaCl, 10 mM tris(hydroxymethyl) aminomethane–HCl, 0.1 mM ethylenediaminetetracetic acid (EDTA), pH 7.4). Serial dilutions of metal complexes were prepared at concentrations ranging from 20 to 400 μM from a 1 mM stock solution containing 20% DMSO. The assay was carried out by mixing 25 μL of CT-DNA and 25 μL of EtBr with 50 μL of each compound dilution, on a black 96-well plate. The plate was incubated at room temperature for 1 h and the fluorescence was measured on a Synergy 4 microplate reader (Biotek, Winooski), with excitation wavelength set to 500 nm, and emission wavelength set to 530–800 nm. The fluorescence emission at 590 nm was used to measure the C50, corresponding to the concentration of compound required to induce a 50% decrease in the fluorescence of the EtBr. Experiments were performed in triplicate.

[8] = 1O2 quantum yield determination with DPBF; settings: acetonitrile; 470 nm blue light
Description: It was performed for complexes 1–8 in acetonitrile according to a relative procedure adapted from the literature[132]−[134] based on monitoring the oxidation of 1,3-diphenylisobenzofuran (DPBF, yellow) to 1,2-dibenzoylbenzene (colorless) photosensitized by the Ir(III) complexes. DPBF was used as an ^1O2 scavenger due to its fast reaction with this molecule. Fresh stock air-equilibrated solutions of photosensitizers (6.00 × 10^–6 M) and DPBF (1.50 × 10^–4 M) in acetonitrile were prepared. In a quartz cell, 1 mL of DPBF solution, 0.5 mL of complex solution, and 1.5 mL of acetonitrile were mixed to prepare a final solution with 5.00 × 10^–5 M DPBF and 1.00 × 10^–6 M complex. The final solutions were studied by recording UV–vis absorption spectra at room temperature in dark conditions (over a period of 6 min with time intervals of 2 min), under blue light irradiation (λexc = 470 nm, “Medusa” photoreactor) and under green light irradiation (λexc = 530 nm, “Medusa” photoreactor) for 5 s irradiation intervals during a total exposure period of 20 s. Absorption UV–vis spectra were recorded after every irradiation interval.
The consumption of DPBF probe was measured by monitoring its absorbance intensity decrease at 410 nm with irradiation time. ^1O2 generation quantum yield (ϕΔ) was calculated from eq 1 using Rose Bengal or [Ru(bpy)3]^2+ as reference for complexes with pbpz and pbpn ligands, respectively: [drawing 22] 1 where s and ref subscripts correspond to the complex and the reference, ϕΔ is the ^1O2 generation quantum yield (0.53 for Rose Bengal[135] and 0.56 for [Ru(bpy)3]Cl2[132] in degassed acetonitrile), S is the slope of the plots of the −ln(normalized absorbance) of DPBF at 410 nm vs the irradiation time, and F is the correction factor of absorption, which is given by F = 1–10^–O.D. (where O.D. is the optical density at 470 nm of solutions of complexes and references). The reproducibility of the results was confirmed by performing each experiment three times.
The stability of DPBF probe was studied in dark conditions and under light irradiation. In dark conditions and under green light irradiation the probe remains unaltered. However, under blue light irradiation, a photobleaching of DPBF was observed. Probe consumption was approximately 6.5% every 5 s. Therefore, a working interval of 20 s was chosen, where 75% of the probe remains stable. To calculate the ϕΔ, a correction factor was applied to the absorbance at 410 nm: a 6.5% of the previous value was added to each absorbance to counteract self-consumption of the probe (i.e., to the absorbance at 10 s, a 6.5% of the absorbance at 5 s was added).

[9] = kept in the dark, viability after 48 h, read-out: IC50 dark
[10] = blue light 460 nm 1 h (24.1 J cm^–2), 48 h, read-out: IC50 blue light

## N#CC(C#N)=NNc1cccc(Cl)c1 [CCCP, carbonyl cyanide m-chlorophenyl hydrazone, reference compound]
[1]
  cells with red fluorescence (JC-1 aggregates), upper right quadrant: 21.9%

## N.N.[Cl][Pt][Cl] [Cisplatin, reference compound]
[2]; [9]
  IC50: 8.9 ± 2 µM
[3]; 1 μM
  Hemolytic activity: 0%
[3]; 5 μM
  Hemolytic activity: 0%
[3]; 10 μM
  Hemolytic activity: 0%
[3]; 25 μM
  Hemolytic activity: 0.2%
[4]
  cells in early apoptosis (AN+; IP−), lower right quadrant: 5.3%
  cells in late apoptosis (AN+; IP+), upper right quadrant: 26.1%
  cells in necrosis (AN–; IP+), upper left quadrant: 6.6%

## [Ru+2].c1ccc(-c2ccnc3c2ccc2c(-c4ccccc4)ccnc23)cc1.c1ccc(-c2ccnc3c2ccc2c(-c4ccccc4)ccnc23)cc1.c1cnc2c(c1)ccc1cccnc12 [[Ru(DIP)2(phen)]2+]
[5]
  PI: 1111
  PI/Dose: 123.4

## Cc1c(C)c(C)[c-](C)c1C.F[B-](F)(F)F.c1ccc2nc3c4ccc[n+]5c4c4[c](cccc4c3nc2c1)[Ir]5[n+]1cc[nH]c1 [complex 3, [(η^5-C5Me5)Ir(Im)(pbpz)]BF4]
[2]; [10]
  IC50: 1.2 ± 0.1 µM
[2]; green light 530 nm 1 h (24.1 J cm^–2), 48 h, read-out: IC50 green light
  IC50: 2.5 ± 0.3 µM
[2]; [9]
  IC50: 4.9 ± 0.7 µM
[2]; green light 530 nm, 24.1 J cm^–2
  PI green light (IC50,dark/IC50,light): 2.0
[6]; 470 nm blue light
  TON1h (NADH oxidation): 2.28
[6]; dark
  TON1h (NADH oxidation): 0.47
[7]
  IC50: 16.1 µM
[8]
  1O2 generation quantum yield (ϕΔ), DPBF: 0.0399

## [(η^5-C5Me5)Ir(bhq)Cl] [complex 10]
[2]; [10]
  IC50: 5.6 ± 0.4 µM
[2]; [9]
  IC50: 10 ± 0.3 µM
[2]; blue light 460 nm, 24.1 J cm^–2
  PI blue light (IC50,dark/IC50,light): 1.8
